# According to patent US20210276960A1, “INHIBITORS OF TISSUE TRANSGLUTAMINASE 2 (TG2) AND USES THEREOF” (Northwestern University, priority 2020, published 2021):
# What was measured:
# OVCAR5 cells = experiment: TIRF microscopy of β1 integrin distribution; type: cell-based, human; details: 1 μM or 5 μM, 1 h pre-treatment
# Procedure: For assessing the potential effect of SMIs on 01 integrin distribution at the interface between cells and the FN matrix, OVCAR5 cells were treated for 1 h with either TG53 or MT-4 in serum-free media at 37° C., and then seeded onto FN-coated glass bottom microwell dishes (MatTek Corp. Ashland, Mass.) for 45 minutes at 37° C. Samples were fixed in PFA and blocked in 1% BSA. 01 integrin receptors were detected by using anti-01 integrin antibodies (clone P5D2, Chemicon, #MAB1959, 1:100) and AlexaFluor 568-conjugated anti-mouse secondary antibodies, while actin was labeled using Alexa Fluor 488-conjugated phalloidin. Cells were imaged with a Nikon Ti2 Microscope equipped with a Photometrics Prime 95B camera using a Nikon Plan Apo 100×1.49 NA TIRF objective.
# [1] = test system: FAK and ERK phosphorylation in OVCAR5 cells; experiment: Western blotting, time course after attachment to FN; type: cell-based, human; details: 5 μM
# Procedure: FIG. 5. Effects of SMIs targeting the TG2/FN complex on “outside-in” signaling and adhesion to mesothelial surfaces. A, Western blot analysis of total and phosphorylated FAK and ERK was performed using cell lysates extracted from OVCAR cells plated on FN for 15 to 45 minutes in the presence of TG53 (left) or MT-4 (right) at 5 μM concentration, as compared to DMSO. GAPDH was used as a control. OVCAR5 cells had been pretreated with the inhibitors for 72 hours. Densitometry analysis used the Quantity One software and results were normalized to GAPDH loading controls. DMSO 0 min time point was considered as 1 for comparative analysis. Values are shown for each band. B, A modified cell adhesion assay measured the effects of TG53, MT-4, MT-5, and MT-6 (25 μM) on SKOV3 cells' adhesion onto semi-confluent LP9 monolayers. C, Dose-dependent effects of TG53, MT-4, MT-5, and MT-6 on OVCAR433 cells adhesion onto semi-confluent LP9 monolayers. D-E, Wound healing assay measures migration of SKOV3 and OVCAR5 cells in the presence of MT-4, MT-5, MT-6 at a concentration of 8 μM (black bars) or vehicle (open bar). Migration rate was determined over a period of 24 hours by measuring the average distance between the wound borders at the beginning and at the end of the assay interval (n=4). F-G, SKOV3-GFP OC cells were injected ip in NSG mice in the presence of either MT-4 ([…]) (F) or MT-6 ([…]) (G) and allowed to attach to the peritoneal wall. After 2 hours, the cell suspension was recovered from the peritoneal cavity through peritoneal washings and the non-attached OC cells recovered were counted. *p<0.05, **p<0.01, ***p<0.001, ****p<0.0001.
# OVCAR5 cells were seeded(1×10^5 cells/well) in 6-well plates (Denville Scientific) and treated for 72 hrs with 1 μM MT-4, TG53 or vehicle control (DMSO). After drug exposure, cells were detached using Cellstripper (cellgro, #25-056-CI, CORNING, Manassas, Va., USA), centrifuged, and counted. Before seeding for either confocal microscopy or western blotting, they were incubated in serum free media in the presence of drugs for 15-90 minutes, as stated in the figure legends.
# Cells pre-treated as stated above were seeded in 60 mm dishes coated with 5 μg/mL FN and serially harvested at 15, 30, and 45 minutes, − or left unattached (0 min), in cold RIPA buffer. Lysates were separated by SDS-PAGE, transferred onto PVDF membranes (Bio-Rad), incubated with primary and secondary antibodies and developed by using SuperSignal™ West Femto Maximum Sensitivity Substrate and Pierce™ ECL Western Blotting Substrate, respectively (Thermo Scientific). […] Densitometry analysis was performed using Quantity One software (Bio-Rad) and results were normalized to GAPDH loading controls. […]
# [2] = test system: integrin β1 on SKOV3 cells; experiment: Flow cytometry of surface integrin β1, SKOV3; type: cell-based; details: serial concentrations
# Procedure: (§1) FIG. 32. Flow cytometry analysis of integrin 31 plasma membrane expression. […] OC cells were pre-incubated 1 h with serial dilutions of MT4 (as compared to TG53- and DMSO-treated cells), and left to attach for on either plastic (P) or fibronectin (FN) coated 6-well plates. Anti-integrin 31 antibodies (0.5 μg/mL) were used as control.
# [3] = test system: integrin β1 on OVCAR5 cells; experiment: Flow cytometry of surface integrin β1, OVCAR5; type: cell-based, human; details: serial concentrations
# Procedure: as §1
# [4] = test system: FAK phosphorylation in SKOV3 cells; experiment: Western blotting, FAK phosphorylation dose response; type: cell-based; details: increasing doses (TG53 8 to 16 μM), 2 hours after adhesion to FN
# Procedure: FIG. 33. Dose response effects induced by TG2-FN inhibitors on FAK phosphorylation.
# Lysates were separated by SDS-PAGE, transferred onto PVDF membranes (Bio-Rad), incubated with primary and secondary antibodies and developed by using SuperSignal™ West Femto Maximum Sensitivity Substrate and Pierce™ ECL Western Blotting Substrate, respectively (Thermo Scientific). Images were obtained by using the ImageQuant LAS 4000 mini-imager (GE Healthcare, Pittsburgh, Pa.). Densitometry analysis was performed using Quantity One software (Bio-Rad) and results were normalized to GAPDH loading controls. DMSO 0 min time point was considered as 1 for comparative analysis.
Compound,β1 integrin distribution at the interface with FN (OVCAR5 cells),"FAK phosphorylation, time course ([1]; 15 to 45 minutes on FN)",time of peak FAK activation post cell seeding on FN ([1]; control 15 minutes) [min],β1 integrin receptors at the plasma membrane [2],β1 integrin receptors at the plasma membrane [3],FAK phosphorylation [4],"ERK phosphorylation, time course ([1]; 15 to 45 minutes on FN)"
COc1ccc(Cl)cc1C(=O)Nc1ccc(Nc2nc(C)cc(N(C)C)n2)cc1 [TG53],modest displacement of integrin receptors towards the cell perimeter,modestly delayed,30,did not show significant downregulation,did not show significant downregulation,attenuated,–
Cc1cc(N(C)C)nc(Nc2ccc(NC(=O)Cc3ccccc3)cc2)n1 [MT-4],enhanced 31 integrin transposition towards the extreme edge of the cell,more evident,–,did not show significant downregulation,did not show significant downregulation,dose-dependent inhibition,inhibited and delayed
